Laboratory results reported in patent US9586951B2 (FUJIFILM Corporation, priority 2013, dated 2017).
pIC50: −log10 of the molar value.

Target: T1, ATM (Homo sapiens, UniProt Q13315)
T1 construct: detecting phosphorylation of Chk2 in a human non-small cell lung cancer cell line NCI-H460 (ATCC company); host or cells: NCI-H460 human non-small cell lung cancer cells
Experiment: ATM inhibition test (phosphorylation of Chk2 generated by ionizing radiation, AlphaScreen SureFire)
Assay type: cell-based
Conditions: phosphorylated Chk2 in NCI-H460 cells, ionizing radiation 8Gy, 1 hour after test compound treatment; read-out: ATM inhibitory activity
Experimental: ATM inhibitory effects of a test compound were measured by detecting phosphorylation of Chk2 in a human non-small cell lung cancer cell line NCI-H460 (ATCC company). The level of phosphorylated Chk2 generated by an ionizing radiation was measured using AlphaScreen SureFire (TGR Biosciences).
The cells were seeded by 40000 cells per well in 96-well CellBIND® plates (Corning International Inc.), and incubated at 37° C. overnight in 5% CO2. […] 1 hour after a test compound treatment, half of the plates were irradiated with ionizing radiation 8Gy (Faxitron Bioptics, LLC, RX-650 type). The plates irradiated with ionizing radiation and the plates not being irradiated with ionizing radiation were incubated at 37° C. for 1 hour in 5% CO2. […] Subsequent operations were performed according to the instruction book of AlphaScreen SureFire. […] The inhibition ratio was calculated by the following equation. Inhibition ratio (%)=((signal of drug untreated wells in the plates irradiated with ionizing radiation−signal of drug treated wells in the plates irradiated with ionizing radiation)/(signal of drug untreated wells in the plates irradiated with ionizing radiation−signal of drug untreated wells in the plates not being irradiated with ionizing radiation))×100

T1 sequence (Q13315 whole entry): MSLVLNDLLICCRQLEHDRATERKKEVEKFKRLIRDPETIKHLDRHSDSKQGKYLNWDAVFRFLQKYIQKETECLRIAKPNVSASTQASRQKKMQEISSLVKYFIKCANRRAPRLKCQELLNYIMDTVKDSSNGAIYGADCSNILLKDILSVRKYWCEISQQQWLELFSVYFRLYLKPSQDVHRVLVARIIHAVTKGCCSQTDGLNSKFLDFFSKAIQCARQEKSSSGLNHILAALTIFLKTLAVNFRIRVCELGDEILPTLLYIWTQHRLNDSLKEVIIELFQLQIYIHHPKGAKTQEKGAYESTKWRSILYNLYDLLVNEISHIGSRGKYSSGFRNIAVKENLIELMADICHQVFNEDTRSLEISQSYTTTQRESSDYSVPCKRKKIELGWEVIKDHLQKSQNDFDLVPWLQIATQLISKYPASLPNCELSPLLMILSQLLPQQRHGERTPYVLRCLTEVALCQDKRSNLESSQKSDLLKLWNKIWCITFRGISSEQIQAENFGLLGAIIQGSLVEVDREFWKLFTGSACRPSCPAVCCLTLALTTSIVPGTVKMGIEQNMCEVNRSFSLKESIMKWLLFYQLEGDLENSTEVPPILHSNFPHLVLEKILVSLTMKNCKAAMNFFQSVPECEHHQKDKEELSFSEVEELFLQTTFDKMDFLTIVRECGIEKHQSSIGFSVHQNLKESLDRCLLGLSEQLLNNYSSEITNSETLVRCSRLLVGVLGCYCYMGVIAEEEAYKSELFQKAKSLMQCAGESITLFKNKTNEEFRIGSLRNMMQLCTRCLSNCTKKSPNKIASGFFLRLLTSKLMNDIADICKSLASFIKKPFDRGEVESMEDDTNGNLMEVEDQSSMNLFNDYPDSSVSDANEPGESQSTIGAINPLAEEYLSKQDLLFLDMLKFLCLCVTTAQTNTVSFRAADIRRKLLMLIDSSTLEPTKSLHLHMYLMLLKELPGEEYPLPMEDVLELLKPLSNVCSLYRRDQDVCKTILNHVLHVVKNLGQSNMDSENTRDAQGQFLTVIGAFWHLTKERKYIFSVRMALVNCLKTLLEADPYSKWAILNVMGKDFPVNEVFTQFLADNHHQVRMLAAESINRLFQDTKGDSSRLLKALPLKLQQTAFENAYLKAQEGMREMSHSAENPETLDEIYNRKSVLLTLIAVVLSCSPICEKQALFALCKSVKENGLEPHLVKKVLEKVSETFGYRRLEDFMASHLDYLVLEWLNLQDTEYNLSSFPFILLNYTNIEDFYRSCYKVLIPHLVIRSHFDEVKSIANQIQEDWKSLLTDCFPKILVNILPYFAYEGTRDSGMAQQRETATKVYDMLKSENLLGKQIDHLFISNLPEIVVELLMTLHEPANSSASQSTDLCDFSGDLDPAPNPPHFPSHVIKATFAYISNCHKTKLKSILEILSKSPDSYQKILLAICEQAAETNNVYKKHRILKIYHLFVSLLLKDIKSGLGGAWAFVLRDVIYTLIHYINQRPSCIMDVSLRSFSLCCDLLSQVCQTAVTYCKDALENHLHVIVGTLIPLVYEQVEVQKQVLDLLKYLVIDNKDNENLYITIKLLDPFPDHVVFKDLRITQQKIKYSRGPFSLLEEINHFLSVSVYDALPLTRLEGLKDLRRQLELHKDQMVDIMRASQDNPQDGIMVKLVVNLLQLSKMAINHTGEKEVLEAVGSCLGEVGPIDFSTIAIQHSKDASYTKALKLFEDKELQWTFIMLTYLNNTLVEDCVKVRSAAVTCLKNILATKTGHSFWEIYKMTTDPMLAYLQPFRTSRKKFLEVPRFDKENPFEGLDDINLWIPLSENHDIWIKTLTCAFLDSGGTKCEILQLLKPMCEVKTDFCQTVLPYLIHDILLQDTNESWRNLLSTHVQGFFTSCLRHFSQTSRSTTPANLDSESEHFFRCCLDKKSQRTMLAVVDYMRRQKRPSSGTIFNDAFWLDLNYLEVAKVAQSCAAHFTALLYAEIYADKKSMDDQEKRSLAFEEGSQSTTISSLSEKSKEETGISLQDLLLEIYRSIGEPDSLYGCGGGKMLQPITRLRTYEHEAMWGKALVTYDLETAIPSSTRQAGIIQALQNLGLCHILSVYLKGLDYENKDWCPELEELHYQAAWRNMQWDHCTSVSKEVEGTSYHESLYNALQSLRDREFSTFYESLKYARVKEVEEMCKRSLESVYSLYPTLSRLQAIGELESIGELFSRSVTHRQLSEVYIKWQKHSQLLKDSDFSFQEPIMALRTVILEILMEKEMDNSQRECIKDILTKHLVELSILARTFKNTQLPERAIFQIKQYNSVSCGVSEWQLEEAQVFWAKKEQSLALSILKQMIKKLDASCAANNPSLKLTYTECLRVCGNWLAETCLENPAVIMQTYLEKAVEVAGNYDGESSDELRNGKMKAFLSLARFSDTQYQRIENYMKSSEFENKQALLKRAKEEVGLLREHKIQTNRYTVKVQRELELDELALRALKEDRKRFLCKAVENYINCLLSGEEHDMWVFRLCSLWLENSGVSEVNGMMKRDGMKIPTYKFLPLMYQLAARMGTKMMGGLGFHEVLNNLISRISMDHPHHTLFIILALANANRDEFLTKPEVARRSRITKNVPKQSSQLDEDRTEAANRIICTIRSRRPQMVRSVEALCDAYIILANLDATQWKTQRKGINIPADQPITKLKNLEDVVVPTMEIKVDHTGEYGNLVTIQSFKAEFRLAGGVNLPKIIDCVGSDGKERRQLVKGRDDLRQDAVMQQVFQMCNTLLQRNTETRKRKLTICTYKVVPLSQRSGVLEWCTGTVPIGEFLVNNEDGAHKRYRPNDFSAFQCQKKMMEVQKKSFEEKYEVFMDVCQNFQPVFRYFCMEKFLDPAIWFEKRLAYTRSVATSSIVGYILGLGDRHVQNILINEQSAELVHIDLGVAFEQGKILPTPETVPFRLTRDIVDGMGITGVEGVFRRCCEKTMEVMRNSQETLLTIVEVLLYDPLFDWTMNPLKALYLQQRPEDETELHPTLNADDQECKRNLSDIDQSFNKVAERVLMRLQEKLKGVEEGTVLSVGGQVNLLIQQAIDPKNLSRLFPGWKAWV

Row | pIC50 | SMILES
1 | 6.30 to 7.00 | Cc1csc(CNc2ccc3c(c2)Cc2cccc(-c4cc(N5CCOCC5)cc(=O)[nH]4)c2O3)c1 [Example 2-14-41, 6-(7-(((4-Methylthiophen-2-yl)methyl)amino)-9H-xanthen-4-yl)-4-morpholino pyridin-2(1H)-one]
2 | 6.30 to 7.00 | Cc1cncc(CNc2ccc3c(c2)Cc2cccc(-c4cc(N5CCOCC5)cc(=O)[nH]4)c2O3)n1 [Example 2-14-74, 6-(7-(((6-Methylpyrazin-2-yl)methyl)amino)-9H-xanthen-4-yl)-4-morpholino pyridin-2(1H)-one]
3 | 6.30 to 7.00 | Cc1cncc(C(C)Nc2ccc3c(c2)Cc2cccc(-c4cc(N5CCOCC5)cc(=O)[nH]4)c2O3)c1 (single isomer, unassigned) [Example 2-14-88-1, 6-(7-((1-(5-methylpyridin-3-yl)ethyl)amino)-9H-xanthen-4-yl)-4-morpholinopyridin-2(1H)-one]
4 | 6.30 to 7.00 | O=c1cc(N2CCOCC2)cc(-c2cccc3c2Oc2ccc(N[C@H]4CCN(Cc5ccccc5)C[C@@H]4O)cc2C3)[nH]1 (relative stereo) [Example 2-33, 6-(7-((trans-1-benzyl-3-hydroxypiperidin-4-yl)amino)-9H-xanthen-4-yl)-4-morpholinopyridin-2(1H)-one]
5 | 6.30 to 7.00 | O=c1cc(N2CCOCC2)cc(-c2cccc3c2Oc2ccc(NC4CCN(Cc5cccnc5)CC4)cc2C3)[nH]1 [Example 2-9-2, 4-Morpholino-6-(7-((1-(pyridin-3-ylmethyl)piperidin-4-yl)amino)-9H-xanthen-4-yl)pyridin-2(1H)-one]
6 | 6.30 to 7.00 | CC(CN1CCN(Cc2ccccc2)CC1)Nc1ccc2c(c1)Sc1cccc(-c3cc(N4CCOCC4)cc(=O)[nH]3)c1S2 (stereo not drawn) [Example 1-15-1, 6-(7-((1-(4-Benzylpiperazin-1-yl)propan-2-yl)amino)thianthren-1-yl)-4-morpholinopyridin-2(1H)-one]
7 | 6.30 to 7.00 | O=c1cc(N2CCOCC2)cc(-c2cccc3c2Sc2ccc(OCCN4CCOCC4)cc2S3)[nH]1 [Example 1-47, 4-Morpholino-6-(7-(2-morpholinoethoxy)thianthren-1-yl)pyridin-2(1H)-one]
8 | 6.30 to 7.00 | CCOc1ccnc(CN2CCC(Nc3ccc4c(c3)Cc3cccc(-c5cc(N6CCOCC6)cc(=O)[nH]5)c3O4)CC2)c1 [Example 2-28-36, 6-(7-((1-((4-Ethoxypyridin-2-yl)methyl)piperidin-4-yl)amino)-9H-xanthen-4-yl)-4-morpholino pyridin-2(1H)-one]
9 | > 7.00 | CC(C)(C)OC(=O)n1cc(-c2cncc(CNc3ccc4c(c3)Sc3cccc(-c5cc(N6CCOCC6)cc(=O)[nH]5)c3S4)c2)cn1 [Example 1-44-6, tert-Butyl 4-(5-(((6-(4-morpholino-6-oxo-1,6-dihydropyridin-2-yl)thianthren-2-yl)amino)methyl)pyridin-3-yl)-1H-pyrazole-1-carboxylate]
10 | 5.70 to 6.30 | Nc1ncc(CNc2ccc3c(c2)Cc2cccc(-c4cc(N5CCOCC5)cc(=O)[nH]4)c2O3)cn1 [Example 2-2-15, 6-(7-(((2-Aminopyrimidin-5-yl)methyl)amino)-9H-xanthen-4-yl)-4-morpholino pyridin-2(1H)-one]
11 | 6.30 to 7.00 | O=c1cc(N2CCOCC2)cc(-c2cccc3c2Sc2ccc(NCC4CCN(Cc5cccnc5)CC4)cc2S3)[nH]1 [Example 1-11, 4-morpholino-6-(7-(((1-(pyridin-3-ylmethyl)piperidin-4-yl)methyl)amino)thianthren-1-yl)pyridin-2(1H)-one]
12 | 6.30 to 7.00 | O=c1cc(N2CCOCC2)cc(-c2cccc3c2Oc2ccc(NC4CCN(Cc5cncc(F)c5)CC4)cc2C3)[nH]1 [Example 2-28-18, 6-(7-((1-((5-Fluoropyridin-3-yl)methyl)piperidin-4-yl)amino)-9H-xanthen-4-yl)-4-morpholino pyridin-2(1H)-one]
13 | 5.70 to 6.30 | Nc1ccc2c(c1)Cc1cccc(-c3cc(N4CCOCC4)cc(=O)[nH]3)c1S2 [Example 3-1, 6-(7-amino-9H-thioxanthen-4-yl)-4-morpholinopyridin-2(1H)-one]
14 | 6.30 to 7.00 | CC(Nc1ccc2c(c1)Cc1ccnc(-c3cc(N4CCOCC4)cc(=O)[nH]3)c1O2)c1cccc(F)n1 (stereo not drawn) [Example 2-41-13, 6-(7-((1-(6-Fluoropyridin-2-yl)ethyl)amino)-5H-chromeno[2,3-c]pyridin-1-yl]-4-morpholino pyridin-2(1H)-one]
15 | 6.30 to 7.00 | COCCNCCC(Nc1ccc2c(c1)Sc1cccc(-c3cc(N4CCOCC4)cc(=O)[nH]3)c1S2)c1cccc(C)n1 (stereo not drawn) [Example 1-20-10, 6-(7-((3-((2-Methoxyethyl)amino)-1-(6-methylpyridin-2-yl)propyl)amino)thianthren-1-yl)-4-morpholino pyridin-2 (1H)-one]
16 | 6.30 to 7.00 | CC(C)Oc1ccc(CCN2CCC(Nc3ccc4c(c3)Cc3cccc(-c5cc(N6CCOCC6)cc(=O)[nH]5)c3O4)CC2)cc1 [Example 2-30-18, 6-(7-((1-(4-Isopropoxyphenethyl)piperidin-4-yl)amino)-9H-xanthen-4-yl)-4-morpholino pyridin-2(1H)-one]
17 | 6.30 to 7.00 | O=C(CNc1ccc2c(c1)Sc1cccc(-c3cc(N4CCOCC4)cc(=O)[nH]3)c1S2)N1CCCC1 [Example 1-18-1, 4-morpholino-6-(7-((2-oxo-2-(pyrrolidin-1-yl)ethyl)amino)thianthren-1-yl)pyridin-2(1H)-one]
18 | 5.70 to 6.30 | O=c1cc(N2CCOCC2)cc(-c2cccc3c2Oc2ccc([N+](=O)[O-])cc2S3)[nH]1 [Example 4-1, 4-Morpholino-6-(8-nitrophenoxathiin-4-yl)pyridin-2(1H)-one]
19 | 6.30 to 7.00 | COc1ncc(C(C)Nc2ccc3c(c2)Sc2cccc(-c4cc(N5CCOCC5)cc(=O)[nH]4)c2S3)cn1 (stereo not drawn) [Example 1-12-76]
20 | 6.30 to 7.00 | N#Cc1ccc(CNc2ccc3c(c2)Cc2ccnc(-c4cc(N5CCOCC5)cc(=O)[nH]4)c2O3)s1 [Example 2-41-17, 5-(((1-(4-Morpholino-6-oxo-1,6-dihydropyridin-2-yl)-5H-chromeno[2,3-c]pyridin-7-yl)amino)methyl)thiophene-2-carbonitrile]
21 | > 7.00 | Cc1ccc(C(Nc2ccc3c(c2)Cc2cccc(-c4cc(N5CCOCC5)cc(=O)[nH]4)c2O3)[C@H]2CN(C)CCO2)nc1 (stereo partly drawn) [Example 2-67, 6-(7-((((R)-4-methylmorpholin-2-yl)(5-methylpyridin-2-yl)methyl)amino)-9H-xanthen-4-yl)-4-morpholinopyridin-2(1H)-one]
22 | > 7.00 | O=c1cc(N2CCOCC2)cc(-c2cccc3c2Sc2ccc(NC4CCN(Cc5cccnc5)C4)cc2S3)[nH]1 (stereo not drawn) [Example 1-24-11, 4-Morpholino-6-(7-((1-(pyridin-3-ylmethyl)pyrrolidin-3-yl)amino)thianthren-1-yl)pyridin-2 (1H)-one]
23 | > 7.00 | O=c1cc(N2CCOCC2)cc(-c2cccc3c2Oc2ccc(NCc4cnc5ccccc5c4)cc2C3)[nH]1 [Example 2-2-46, 4-Morpholino-6-(7-((quinolin-3-ylmethyl)amino)-9H-xanthen-4-yl) pyridin-2(1H)-one]
24 | 5.70 to 6.30 | Cc1ccc(CNc2ccc3c(c2)Cc2cccc(-c4cc(N5CCOCC5)cc(=O)[nH]4)c2O3)s1 [Example 2-14-40, 6-(7-(((5-Methylthiophen-2-yl)methyl)amino)-9H-xanthen-4-yl)-4-morpholino pyridin-2(1H)-one]
